Experimental data taken from patent US10604509B2, “Nrf2 regulators” (GlaxoSmithKline Intellectual Property Development Limited, priority 2015, dated 2020).
Where a name gives a salt, the structure may show the parent alone. Read-outs that look alike come from different tables or passages of the source.

System: NQO1 specific enzyme activity in BEAS-2B cells
Test: BEAS-2B NQO1 MTT assay
Format: cell-based
Conditions: read-out: EC50 of NQO1 specific activity induction
Procedure, shortened: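 BEAS-2B cells treated with compound 48 h at 37° C, 5% CO2, then lysed; NQO1 activity in lysate measured kinetically by MTT cocktail at Absorbance 570 nm over 30 min. EC50 for induction from Delta OD/min versus log concentration, 3-parameter fit; Cell Titer Glo run on lysate aliquot.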

[1] = Homo sapiens, BEAS-2B, 48 h, BEAS-2B cells, 48 hours with compound, MTT readout
[2] = BEAS-2B cells, 48 hours with compound, MTT readout

Compound	EC50 [1] [nM]	other results
Cc1ccc2c(c1)OC(C)(C)CN(Cc1cc([C@H](CC(=O)O)c3ccc4c(nnn4C)c3C)ccc1C)C2 [Example 180, (S)-3-(1,4-Dimethyl-1H-benzo[d][1,2,3]triazol-5-yl)-3-(4-methyl-3-((2,2,8-trimethyl-2,3-dihydrobenzo[f][1,4]oxazepin-4(5H)-yl)methyl)phenyl) propanoic acid]	10 to 100	
CCC1CCN(Cc2nccn2Cc2cc(C(c3ccc4c(nnn4C)c3C)C(C)(C)C(=O)O)ccc2Cl)CC1 (centres unmarked) [Example 236, 3-(4-Chloro-3-((2-((4-ethylpiperidin-1-yl)methyl)-1H-imidazol-1-yl)methyl)phenyl)-3-(1,4-dimethyl-1H-benzo[d][1,2,3]triazol-5-yl)-2,2-dimethylpropanoic Acid]	< 1	
Cc1ccc(C(CC(=O)O)c2ccc3c(nnn3C)c2C)cc1CN(C)Cc1ccc(Br)cc1 (centres unmarked) [Example 16, Ammonium 3-(3-(((4-bromobenzyl)(methyl)amino)methyl)-4-methylphenyl)-3-(1,4-dimethyl-1H-benzo[d][1,2,3]triazol-5-yl)propanoate]	1000 to 10000	
Cc1ccc(C(CC(=O)O)c2ccc3c(nnn3C)c2C)cc1Cc1cnnn1CC1CCCCC1 (centres unmarked) [Example 128, 3-(3-((1-(Cyclohexylmethyl)-1H-1,2,3-triazol-5-yl)methyl)-4-methylphenyl)-3-(1,4-dimethyl-1H-benzo[d][1,2,3]triazol-5-yl)propanoic acid]	1000 to 10000	
CC[C@@H]1CN(Cc2cc(C(CCc3cn(CC)nn3)CC(=O)NS(C)(=O)=O)ccc2C)Cc2cnccc2O1 (stereo partly drawn) [Example 234, 5-(1-Ethyl-1H-1,2,3-triazol-4-yl)-3-(3-(((R)-2-ethyl-2,3-dihydropyrido[3,4-f][1,4]oxazepin-4(5H)-yl)methyl)-4-methylphenyl)-N-(methylsulfonyl)pentanamide]	1000 to 10000	
CC[C@@H]1CN(Cc2cc([C@H](CC(=O)O)c3ccc4c(nnn4CC)c3F)ccc2C)Cc2ccccc2O1 (relative stereo) [compound 182, rel-(S)-3-(3-(((R)-2-Ethyl-2,3-dihydrobenzo[f][1,4]oxazepin-4(5H)-yl)methyl)-4-methylphenyl)-3-(1-ethyl-4-fluoro-1H-benzo[d][1,2,3]triazol-5-yl)propanoic acid]	100 to 1000	
CC[C@@H]1CN(Cc2nc(C(c3ccc4c(nnn4C)c3C)C(C)(C)C(=O)O)ccc2C)Cc2cnccc2O1 (stereo partly drawn) [Example 212, 3-(1,4-Dimethyl-1H-benzo[d][1,2,3]triazol-5-yl)-3-(6-(((R)-2-ethyl-2,3-dihydropyrido[3,4-f][1,4]oxazepin-4(5H)-yl)methyl)-5-methylpyridin-2-yl)-2,2-dimethylpropanoic Acid, Formic Acid Salt]	10 to 100	
CC[C@@H]1CN(Cc2cc(C(c3ccc4c(nnn4C)c3C)C(C)(C)C(=O)O)ccc2C)Cc2ccc(F)cc2O1 (stereo partly drawn) [Example 33, 3-(1,4-Dimethyl-1H-benzo[d][1,2,3]triazol-5-yl)-3-(3-(((R)-2-ethyl-8-fluoro-2,3-dihydrobenzo[f][1,4]oxaz-epin-4(5H)-yl)methyl)-4-methylphenyl)-2,2-dimethylpropanoic acid, formic acid salt]	10 to 100	
COc1ccc(C2COCCN2Cc2cc(C(CC(=O)O)c3ccc4c(nnn4C)c3C)ccc2C)cc1 (centres unmarked) [Example 21, 3-(1,4-dimethyl-1H-benzo[d][1,2,3]triazol-5-yl)-3-(3-((3-(4-methoxyphenyl)morpholino)methyl)-4-methylphenyl)propanoic acid, formic acid salt]	1000 to 10000	
CC[C@@H]1CN(Cc2cc([C@H](CC(=O)O)c3ccc4c(nnn4C)c3C)ccc2F)Cc2ccncc2O1 [Example 260, (S)-3-(1,4-dimethyl-1H-benzo[d][1,2,3]triazol-5-yl)-3-(3-(((R)-2-ethyl-2,3-dihydropyrido[4,3-f][1,4]oxazepin-4(5H)-yl)methyl)-4-fluorophenyl)propanoic acid]	100 to 1000	
CCC1CCN(Cc2nccn2Cc2cc([C@H](c3ccc4c(nnn4C)c3C)C(C)(C)C(=O)O)ccc2Cl)CC1 [Example 238, (R)-3-(4-Chloro-3-((2-((4-ethylpiperidin-1-yl)methyl)-1H-imidazol-1-yl)methyl)phenyl)-3-(1,4-dimethyl-1H-benzo[d][1,2,3]triazol-5-yl)-2,2-dimethylpropanoic Acid]	1 to 10	
Cc1ccc(C(CC(=O)O)c2ccc3c(nnn3C)c2C)cc1CN1Cc2ccccc2CC(C)(C)C1 (centres unmarked) [Example 105, Ammonium 3-(1,4-dimethyl-1H-benzo[d][1,2,3]triazol-5-yl)-3-(3-((4,4-dimethyl-4,5-dihydro-1H-benzo[c]azepin-2(3H)-yl)methyl)-4-methylphenyl)propanoate]	10 to 100	
CCC1CN(Cc2cc(C(CC(=O)O)c3cc(OC)c4c(nnn4C)c3C)ccc2C)Cc2ccccc2O1 (centres unmarked) [Example 70, 3-(3-((2-Ethyl-2,3-dihydrobenzo[f][1,4]oxazepin-4(5H)-yl)methyl)-4-methylphenyl)-3-(7-methoxy-1,4-dimethyl-1H-benzo[d][1,2,3]triazol-5-yl)propanoic Acid, Formic Acid Salt]	10 to 100	
Cc1ccc(C(c2ccc3c(nnn3C)c2C)C(C)(C)C(=O)O)cc1Cn1ccnc1CN1CCO[C@H](C)C1 (stereo partly drawn) [Example 144, 3-(1,4-Dimethyl-1H-benzo[d][1,2,3]triazol-5-yl)-2,2-dlmethyl-3-(4-methyl-3-((2-(((R)-2-methylmorpholino)methyl)-1H-imidazol-1-yl)methyl)phenyl) propanoic acid, trifluoroacetic acid salt]	100 to 1000	
CC[C@@H]1CN(Cc2cc([C@@H](CC(=O)O)c3ccc4c(nnn4C)c3C)ccc2C)Cc2cnccc2O1 [Example 43, (R)-3-(1,4-Dimethyl-1H-benzo[d][1,2,3]triazol-5-yl)-3-(3-(((R)-2-ethyl-2,3-dihydropyrido[3,4-f][1,4]oxazepin-4(5H)-yl)methyl)-4-methylphenyl)propanoic Acid, Formic Acid Salt]	1000 to 10000	
Cc1ccc(C(CC(=O)O)c2ccc3c(nnn3C)c2C)cc1Cn1ccnc1CC1CCCCC1 (centres unmarked) [Example 127, 3-(3-((2-(Cyclohexylmethyl)-1H-imidazol-1-yl)methyl)-4-methylphenyl)-3-(1,4-dimethyl1H-benzo[d][1,2,3]triazol-5-yl)propanoic Acid]	10 to 100	
CCn1nnc2c(C)c([C@H](c3ccc(C)c(Cn4ccnc4CN4CCCCC4)c3)[C@@H](C)C(=O)O)ccc21 [Example 210, (2R,3S)-3-(1-Ethyl-4-methyl-1H-benzo[d][1,2,3]triazol-5-yl)-2-methyl-3-(4-methyl-3-((2-(piperidin-1-ylmethyl)-1H-imidazol-1-yl)methyl)phenyl)propanoic Acid]	10 to 100	
CCn1nnc2c(Cl)c([C@@H](CC(=O)O)c3ccc(C)c(CN4Cc5ccccc5OC(C)(C)C4)c3)ccc21 [Example 54, (S)-3-(4-Chloro-1-ethyl-1H-benzo[d][1,2,3]triazol-5-yl)-3-(3-((2,2-dimethyl-2,3-dihydrobenzo[f][1,4]oxazepin-4(5H)-yl)methyl)-4-methylphenyl)propanoic acid, hydrochloride]	10 to 100	
Cc1ccc(C(CC(=O)O)c2ccc3c(nnn3C)c2C)cc1CN1CCOc2ccc(C#N)cc2C1 (centres unmarked) [Example 14, Ammonium 3-(3-((7-cyano-2,3-dihydrobenzo[f][1,4]oxazepin-4(5H)-yl)methyl)-4-methylphenyl)-3-(1,4-dimethyl-1H-benzo[d][1,2,3]triazol-5-yl)propanoate]	1000 to 10000	
CC[C@@H]1CN(Cc2cc([C@@H](c3ccc4c(nnn4C)c3C)C(C)(C)C(=O)O)ccc2C)Cc2cnccc2O1 [Example 24, (S)-3-(1,4-Dimethyl-1H-benzo[d][1,2,3]triazol-5-yl)-3-(3-(((R)-2-ethyl-2,3-dihydropyrido[3,4-f][1,4]oxazepin-4(5H)-yl)methyl)-4-methylphenyl)-2,2-dimethylpropanoic Acid, Formic Acid Salt]		EC50 (Homo sapiens, BEAS-2B, 48 h): < 1 nM
Cc1ccc([C@H](CC(=O)O)c2ccc3c(nnn3C)c2C)cc1CN1CCCC(Cn2cccn2)C1 (stereo partly drawn) [Example 215, (3S)-3-(3-((3-((1H-Pyrazol-1-yl)methyl)piperidin-1-yl)methyl)-4-methylphenyl)-3-(1,4-dimethyl-1H-benzo[d][1,2,3]triazol-5-yl)propanoic Acid]	1000 to 10000	
Cc1ccc([C@@H](CC(=O)O)c2ccc3c(nnn3C)c2C)cc1CN1CCCC(n2cccn2)C1 (single isomer, unassigned; isomer 1) [Example 157]		EC50 [2]: 100 to 1000 nM
CC[C@@H]1CN(Cc2cc([C@H](CC(=O)O)c3ccc4c(nnn4C)c3C)ccc2Cl)Cc2ncccc2O1 [Example 263, (S)-3-(4-chloro-3-(((R)-2-ethyl-2,3-dihydropyrido[2,3-f][1,4]oxazepin-4(5H)-yl)methyl)phenyl)-3-(1,4-dimethyl-1H-benzo[d][1,2,3]triazol-5-yl)propanoic acid]	10 to 100	
CCC1CN(Cc2cc(C(CC(=O)O)c3cc(OC)c4c(c3)nnn4C)ccc2C)Cc2ccccc2O1 (centres unmarked) [compound 46]	100 to 1000	
CC[C@@H]1CN(Cc2cc([C@@H](CC(=O)O)c3ccc4c(nnn4CC)c3Cl)ccc2C)Cc2ccccc2O1 [Example 67, (R)-3-(4-Chloro-1-ethyl-1H-benzo[d][1,2,3]triazol-5-yl)-3-(3-(((R)-2-ethyl-2,3-dihydrobenzo[f][1,4]oxazepin-4(5H)-yl)methyl)-4-methylphenyl)propanoate, Sodium Salt]	10 to 100	
CCC1CCN(Cc2nccn2Cc2cc(C(CCc3cn(CC)nn3)C(C)C(=O)O)ccc2C)CC1 (single isomer, unassigned) [Example 226, 5-(1-Ethyl-1H-1,2,3-triazol-4-yl)-3-(3-((2-((4-ethylpiperidin-1-yl)methyl)-1H-imidazol-1-yl)methyl)-4-methylphenyl)-2-methylpentanoic acid, Trifluoroacetic Acid Salt]		EC50 [2]: 10 to 100 nM
